Measurements published in patent publication US12622974B2, “Siderophore-dihydrofolate reductase inhibitor conjugate and application thereof” (priority 2020, dated 2026).
Values after ≈ are worked out from the molar mass of the structure shown. *1 amine or outer side, *2 acyl side, *3 side chain or, on linkers, in order; H or OH if unused. Where a SMILES comes first, the peptide text is derived from it. [ ]: non-standard residue; d: D form. The star is where a group is joined. DAMPA = CN(Cc1cnc2nc(N)nc(N)c2n1)c1ccc(C(=O)*)cc1; Orn(N5-OH,N5-Ac) = CC(=O)N(O)CCC[C@H](N)C(=O)O; d(γGlu) = O=C(O)[C@@H](CCC(=O)[*:2])N[*:1]; Ethylenediamine = C(CN[*:2])N[*:1]

Key:
[1] = tested on: clinical Streptococcus pneumoniae; experiment: MIC determination on Streptococcus pneumoniae by the microdilution broth method; assay type: cell-based; conditions: MH broth II with horse blood and 2,2-bipyridine, 16-18 hours; for MIC against Streptococcus pneumoniae 180918016-S27: clinical strain 180918016-S27; for MIC against Streptococcus pneumoniae 180918017-S28: clinical strain 180918017-S28
Procedure: The minimum inhibitory concentration (MIC) determination was performed in accordance with the standards of the American Association for Clinical and Laboratory Standards (CLSIM07). The MIC determination on Streptococcus pneumoniae was carried out by the microdilution broth method as follows. First, the compound to be tested was dissolved in water to prepare a high-concentration original solution, and then the compound original solution was sequentially diluted by 2 folds, a total of 10 times, to prepare 11 samples of 10× working solution. Then the gradient dilutions of the compound were transferred to a 96-well round bottom plate, the first to eleventh wells contained 10 μL of the 11 samples of 10× working solution prepared above, respectively, and 10 μL of water was added to the twelfth well as a solvent control.

[2] = Cytotoxicity test, MTT colorimetric method, 293T; assay type: cell-based; conditions: human
Procedure: (§1) The cytotoxicity test was carried out with the MTT colorimetric method. 5×10^3 cells in a logarithmic growth phase were inoculated in each well of a 96-well plate, and incubated overnight at 37° C. in an incubator (5% CO2). Then, different concentrations of compounds were added and the incubation further continued for 72 hours. Finally, 10 μL of MTT solution was added to each well and he incubation further continued for 4 hours. Then, the culture medium in each well was carefully aspirated. 100 μL of dimethyl sulfoxide was added to each well, and shaken at low speed for 10 minutes on a shaker to fully dissolve crystals. The absorbance of each well was measured at OD490 nm of the enzyme-linked immunometric meter. Three parallel measurements were designed for each group, in order to calculate the standard deviation. Cell survival rate=(compound-treated OD value−blank control OD value)/(normal control OD value−blank control OD value)*100%
(§2) The toxicity of each compound was tested by measuring the half inhibitory concentrations (IC50) with respect to human normal hepatocytes (L02), human umbilical vein endothelial cells (HUVEC) and human renal epithelial cells (293T), respectively.

[3] = Cytotoxicity test, MTT colorimetric method, L02; assay type: cell-based; conditions: human
Procedure: as §1, §2

[4] = tested on: human normal hepatocytes, human umbilical vein endothelial cells and human renal epithelial cells; experiment: Cytotoxicity test, overall statement across the three normal human cell types; assay type: cell-based; conditions: L02, HUVEC and 293T; compared with methotrexate
Procedure: as §1, §2

[5] = Cytotoxicity test, MTT colorimetric method, HUVEC; assay type: cell-based; conditions: human
Procedure: as §1, §2

Streptococcus pneumoniae = conditions: background statement; cited from earlier work
Enterococcus = conditions: cited from earlier work

## CC(=O)N(O)CCC[C@H](NC(=O)[C@H](CCCN(O)C(C)=O)NC(=O)[C@@H](N)CCCN(O)C(C)=O)C(=O)NCCNC(=O)[C@H](CO)NC(=O)[C@H](CO)NC(=O)CC[C@@H](NC(=O)c1ccc(N(C)Cc2cnc3nc(N)nc(N)c3n2)cc1)C(=O)O [3-4g]
[1]
  MIC against Streptococcus pneumoniae 180918016-S27: <0.0078
  MIC against Streptococcus pneumoniae 180918017-S28: <0.0078
[2]
  IC50 at 72 h: 5.38 ± 0.65 µM
[3]
  IC50 at 72 h: 27 ± 2.88 µM
[4]
  Toxicity to normal human cells (in words): least toxicity
[5]
  IC50 at 72 h: 18.4 ± 1.82 µM

## CN[C@H](CC(C)C)C(=O)N[C@H]1C(=O)N[C@@H](CC(N)=O)C(=O)N[C@H]2C(=O)N[C@H]3C(=O)N[C@H](C(=O)N[C@H](C(=O)O)c4cc(O)cc(O)c4-c4cc3ccc4O)[C@H](O)c3ccc(c(Cl)c3)Oc3cc2cc(c3O[C@@H]2O[C@H](CO)[C@@H](O)[C@H](O)[C@H]2O[C@H]2C[C@](C)(N)[C@H](O)[C@H](C)O2)Oc2ccc(cc2Cl)[C@H]1O [Vancomycin, reference compound]
[1]
  MIC against Streptococcus pneumoniae 180918016-S27: 0.25
  MIC against Streptococcus pneumoniae 180918017-S28: 0.125

## CCC(=O)N(O)CCCC[C@H](NC(=O)[C@H](CCCCN(O)C(=O)CC)NC(=O)[C@@H](N)CCCCN(O)C(=O)CC)C(=O)NCCOCCOCCNC(=O)CC[C@H](NC(=O)c1ccc(N(C)Cc2cnc3nc(N)nc(N)c3n2)cc1)C(=O)O [3-4x]
[1]
  MIC against Streptococcus pneumoniae 180918016-S27: <0.0078
  MIC against Streptococcus pneumoniae 180918017-S28: <0.0078

## CC(=O)N(O)CCC[C@H](NC(=O)[C@H](CCCN(O)C(C)=O)NC(=O)[C@@H](N)CCCN(O)C(C)=O)C(=O)N[C@@H](CO)C(=O)NCCNC(=O)CC[C@@H](NC(=O)c1ccc(N(C)Cc2cnc3nc(N)nc(N)c3n2)cc1)C(=O)O [3-4f] (H-[Orn(N5-OH,N5-Ac)][Orn(N5-OH,N5-Ac)][Orn(N5-OH,N5-Ac)]S-{Ethylenediamine-d(γGlu)-DAMPA})
[1]
  MIC against Streptococcus pneumoniae 180918016-S27: <0.0078
  MIC against Streptococcus pneumoniae 180918017-S28: <0.0078
[2]
  IC50 at 72 h: 3.93 ± 0.03 µM
[3]
  IC50 at 72 h: 14.7 ± 1.7 µM
[5]
  IC50 at 72 h: 19.2 ± 0.54 µM

## CN(Cc1cnc2nc(N)nc(N)c2n1)c1ccc(C(=O)N[C@@H](CCC(=O)O)C(=O)O)cc1 [Methotrexate, reference compound]
[1]
  MIC against Streptococcus pneumoniae 180918016-S27: 0.125
  MIC against Streptococcus pneumoniae 180918017-S28: 0.03125
[2]; 293T cells (human renal epithelial cells), 293T cells, MTT, 72 hours, read-out: Cytotoxicity IC50 293T
  IC50 at 72 h: 0.01 µM
[3]; L02 cells (human normal hepatocytes), L02 cells, MTT, 72 hours, read-out: Cytotoxicity IC50 L02
  IC50 at 72 h: 0.01 µM
Streptococcus pneumoniae
  MIC against Streptococcus pneumoniae: 0.5 µM (≈ 0.227 µg/mL)
Enterococcus
  MIC against Enterococcus: 4 µM (≈ 1.82 µg/mL)
[5]; HUVEC (human umbilical vein endothelial cells), HUVEC cells, MTT, 72 hours, read-out: Cytotoxicity IC50 HUVEC
  IC50 at 72 h: < 0.0781 µM

## CC(=O)N(O)CCC[C@H](NC(=O)[C@H](CCCN(O)C(C)=O)NC(=O)[C@@H](N)CCCN(O)C(C)=O)C(=O)NCCCCCNC(=O)CC[C@@H](NC(=O)c1ccc(N(C)Cc2cnc3nc(N)nc(N)c3n2)cc1)C(=O)O [3-4b]
[1]
  MIC against Streptococcus pneumoniae 180918016-S27: 0.0625
  MIC against Streptococcus pneumoniae 180918017-S28: <0.0078
[2]
  IC50 at 72 h: 8.82 ± 0.08 µM
[3]
  IC50 at 72 h: 34.6 ± 14.5 µM
[4]
  Toxicity to normal human cells (in words): least toxicity
[5]
  IC50 at 72 h: 31 ± 3.18 µM

## CC(=O)N(O)CCC[C@H](NC(=O)[C@H](CCCN(O)C(C)=O)NC(=O)[C@@H](N)CCCN(O)C(C)=O)C(=O)NCCNC(=O)[C@H](CCCCN)NC(=O)CC[C@@H](NC(=O)c1ccc(N(C)Cc2cnc3nc(N)nc(N)c3n2)cc1)C(=O)O [3-4h]
[2]
  IC50 at 72 h: 10.6 ± 1.34 µM
[3]
  IC50 at 72 h: 34.5 ± 4.01 µM
[4]
  Toxicity to normal human cells (in words): least toxicity
[5]
  IC50 at 72 h: 16.6 ± 2 µM

## CC(=O)N(O)CCC[C@H](NC(=O)[C@H](CCCN(O)C(C)=O)NC(=O)[C@@H](N)CCCN(O)C(C)=O)C(=O)NCCOCCOCCNC(=O)CC[C@@H](NC(=O)c1ccc(N(C)Cc2cnc3nc(N)nc(N)c3n2)cc1)C(=O)O [3-4c]
[1]
  MIC against Streptococcus pneumoniae 180918016-S27: <0.0078
  MIC against Streptococcus pneumoniae 180918017-S28: <0.0078
[2]
  IC50 at 72 h: 2.66 ± 0.01 µM
[3]
  IC50 at 72 h: 5.46 ± 2.18 µM
[5]
  IC50 at 72 h: 4.52 ± 0.21 µM

## CC(=O)N(O)CCCC[C@H](NC(=O)[C@H](CCCCN(O)C(C)=O)NC(=O)[C@@H](N)CCCCN(O)C(C)=O)C(=O)NCCOCCOCCNC(=O)CC[C@H](NC(=O)c1ccc(N(C)Cc2cnc3nc(N)nc(N)c3n2)cc1)C(=O)O [3-4v]
[1]
  MIC against Streptococcus pneumoniae 180918016-S27: <0.0078
  MIC against Streptococcus pneumoniae 180918017-S28: <0.0078
